Assay results as given in BindingDB's records for doi:10.1021/jm00160a010 (1986).
pKi: −log10 of the molar value.

experiment: Displacement of [3H]EK from Opioid receptor delta 1 in guinea pig brain membrane

**Q.** With O=C(CCC(=O)NCC(=O)N[C@@H]1CC[C@@]2(O)[C@H]3Cc4ccc(O)c5c4[C@@]2(CCN3CC2CC2)[C@H]1O5)NCC(=O)N[C@@H]1CC[C@@]2(O)[C@H]3Cc4ccc(O)c5c4[C@@]2(CCN3CC2CC2)[C@H]1O5 [1N,4N-di[4-cyclopropylmethyl-10,17-dihydroxy-(13R,14R,17S)-12-oxa-4-azapentacyclo[9.6.1.01,13.05,17.07,18]octadeca-7(18),8,10-trien-14-ylcarbamoylmethyl]succinamide] as the compound, how does the pKi read?
**A.** The pKi was 8.11.

**Q.** With O=C(CCC(=O)N[C@@H]1CC[C@@]2(O)[C@H]3Cc4ccc(O)c5c4[C@@]2(CCN3CC2CC2)[C@H]1O5)N[C@@H]1CC[C@@]2(O)[C@H]3Cc4ccc(O)c5c4[C@@]2(CCN3CC2CC2)[C@H]1O5 [1N,4N-di[4-cyclopropylmethyl-10,17-dihydroxy-(13R,14R,17S)-12-oxa-4-azapentacyclo[9.6.1.01,13.05,17.07,18]octadeca-7(18),8,10-trien-14-yl]succinamide] as the compound, how does the pKi read?
**A.** The pKi was 7.92.

**Q.** With CN1CC[C@]23c4c5ccc(O)c4O[C@@H]2[C@H](NC(=O)CNC(=O)CCC(=O)NCC(=O)N[C@@H]2CC[C@]4(O)[C@H]6Cc7ccc(O)c8c7[C@@]4(CCN6C)[C@@H]2O8)CC[C@]3(O)[C@H]1C5 [1N,4N-di[10,17-dihydroxy-4-methyl-(13R,14S,17S)-12-oxa-4-azapentacyclo[9.6.1.01,13.05,17.07,18]octadeca-7(18),8,10-trien-14-ylcarbamoylmethyl]succinamide] as the compound, how does the pKi read?
**A.** The pKi was 7.07.

**Q.** With O=C(CCC(=O)NCC(=O)NCC(=O)NCC(=O)N[C@@H]1CC[C@@]2(O)[C@H]3Cc4ccc(O)c5c4[C@@]2(CCN3CC2CC2)[C@H]1O5)NCC(=O)NCC(=O)NCC(=O)N[C@@H]1CC[C@@]2(O)[C@H]3Cc4ccc(O)c5c4[C@@]2(CCN3CC2CC2)[C@H]1O5 [1N,4N-di[4-cyclopropylmethyl-10,17-dihydroxy-(13R,14R,17S)-12-oxa-4-azapentacyclo[9.6.1.01,13.05,17.07,18]octadeca-7(18),8,10-trien-14-ylcarbamoylmethylcarbamoylmethylcarbamoylmethyl]succinamide] as the compound, how does the pKi read?
**A.** The pKi was 8.19.

**Q.** With O=C(CCC(=O)NCC(=O)NCC(=O)N[C@@H]1CC[C@@]2(O)[C@H]3Cc4ccc(O)c5c4[C@@]2(CCN3CC2CC2)[C@H]1O5)NCC(=O)NCC(=O)N[C@@H]1CC[C@@]2(O)[C@H]3Cc4ccc(O)c5c4[C@@]2(CCN3CC2CC2)[C@H]1O5 [1N,4N-di[4-cyclopropylmethyl-10,17-dihydroxy-(13R,14R,17S)-12-oxa-4-azapentacyclo[9.6.1.01,13.05,17.07,18]octadeca-7(18),8,10-trien-14-ylcarbamoylmethylcarbamoylmethyl]succinamide] as the compound, how does the pKi read?
**A.** Its pKi is 8.31.

**Q.** With CN1CC[C@]23c4c5ccc(O)c4O[C@@H]2[C@H](NC(=O)CCC(=O)N[C@@H]2CC[C@]4(O)[C@H]6Cc7ccc(O)c8c7[C@@]4(CCN6C)[C@@H]2O8)CC[C@]3(O)[C@H]1C5 [1N,4N-di[10,17-dihydroxy-4-methyl-(13R,14S,17S)-12-oxa-4-azapentacyclo[9.6.1.01,13.05,17.07,18]octadeca-7(18),8,10-trien-14-yl]succinamide] as the compound, how does the pKi read?
**A.** The pKi was 6.70.

**Q.** With CN1CC[C@]23c4c5ccc(O)c4O[C@@H]2[C@H](NC(=O)CNC(=O)CNC(=O)CNC(=O)CCC(=O)NCC(=O)NCC(=O)NCC(=O)N[C@@H]2CC[C@]4(O)[C@H]6Cc7ccc(O)c8c7[C@@]4(CCN6C)[C@@H]2O8)CC[C@]3(O)[C@H]1C5 [1N,4N-di[10,17-dihydroxy-4-methyl-(13R,14S,17S)-12-oxa-4-azapentacyclo[9.6.1.01,13.05,17.07,18]octadeca-7(18),8,10-trien-14-ylcarbamoylmethylcarbamoylmethyl]succinamide] as the compound, how does the pKi read?
**A.** The pKi was 7.38.

**Q.** With CN1CC[C@]23c4c5ccc(O)c4O[C@H]2[C@@H](NC(=O)CNC(=O)CNC(=O)CCC(=O)NCC(=O)NCC(=O)N[C@H]2CC[C@@]4(O)[C@H]6Cc7ccc(O)c8c7[C@@]4(CCN6C)[C@H]2O8)CC[C@@]3(O)[C@H]1C5 [1N,4N-di[10,17-dihydroxy-4-methyl-(13R,14S,17S)-12-oxa-4-azapentacyclo[9.6.1.01,13.05,17.07,18]octadeca-7(18),8,10-trien-14-ylcarbamoylmethylcarbamoylmethylcarbamoylmethyl]succinamide] as the compound, how does the pKi read?
**A.** Its pKi is 7.30.

experiment: Compound was tested for binding affinity against delta opioid receptor in guinea pig brain membrane using [3H]EK as the radioligand

**Q.** With CN1CC[C@]23c4c5ccc(O)c4O[C@@H]2[C@H](NC(=O)CNC(=O)CNC(=O)CCC(=O)NCC(=O)NCC(=O)N[C@@H]2CC[C@]4(O)[C@H]6Cc7ccc(O)c8c7[C@@]4(CCN6C)[C@@H]2O8)CC[C@]3(O)[C@H]1C5 [1N,4N-di[10,17-dihydroxy-4-methyl-(13S,14R,17R)-12-oxa-4-azapentacyclo[9.6.1.01,13.05,17.07,18]octadeca-7(18),8,10-trien-14-ylcarbamoylmethylcarbamoylmethyl]succinamide] as the compound, how does the pKi read?
**A.** Its pKi is 7.57.
